Assay results: PubChem BioAssay (NCI)
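48-hour exposure; five concentrations; linearly interpolated endpoints. GI50 is the concentration that inhibits growth by half. TGI denotes the concentration required for complete inhibition of growth.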

How the values were obtained:
Test in all cases: NCI tumour cell line growth inhibition, 48 h
K-562 leukemia = system: K-562 leukemia
MOLT-4 leukemia = system: MOLT-4 leukemia
SW-620 colon = system: SW-620 colon
UACC-257 melanoma = system: UACC-257 melanoma
HCC-2998 colon = system: HCC-2998 colon
T-47D breast = system: T-47D breast
OVCAR-4 ovarian = system: OVCAR-4 ovarian
SN12C renal = system: SN12C renal
TK-10 renal = system: TK-10 renal
MDA-MB-231 breast = system: MDA-MB-231 breast
CCRF-CEM leukemia = system: CCRF-CEM leukemia
SNB-19 CNS = system: SNB-19 CNS
BT-549 breast = system: BT-549 breast
MCF7 breast = system: MCF7 breast
786-0 renal = system: 786-0 renal
IGROV1 ovarian = system: IGROV1 ovarian
OVCAR-5 ovarian = system: OVCAR-5 ovarian
CAKI-1 renal = system: CAKI-1 renal
HCT-15 colon = system: HCT-15 colon
SNB-75 CNS = system: SNB-75 CNS
HS 578T breast = system: HS 578T breast
SF-268 CNS = system: SF-268 CNS
ACHN renal = system: ACHN renal
SK-OV-3 ovarian = system: SK-OV-3 ovarian
A498 renal = system: A498 renal
PC-3 prostate = system: PC-3 prostate
NCI/ADR-RES ovarian = system: NCI/ADR-RES ovarian
HOP-62 NSCLC = system: HOP-62 NSCLC
EKVX NSCLC = system: EKVX NSCLC
UACC-62 melanoma = system: UACC-62 melanoma
UO-31 renal = system: UO-31 renal
NCI-H522 lung = system: NCI-H522 lung
U251 CNS = system: U251 CNS
RXF 393 renal = system: RXF 393 renal
RPMI-8226 leukemia = system: RPMI-8226 leukemia
SR leukemia = system: SR leukemia
NCI-H226 lung = system: NCI-H226 lung
MALME-3M melanoma = system: MALME-3M melanoma
HCT-116 colon = system: HCT-116 colon
M14 melanoma = system: M14 melanoma
NCI-H460 lung = system: NCI-H460 lung
SF-539 CNS = system: SF-539 CNS
DU-145 prostate = system: DU-145 prostate
OVCAR-8 ovarian = system: OVCAR-8 ovarian
SF-295 CNS = system: SF-295 CNS
MDA-MB-435 = system: MDA-MB-435
LOX IMVI melanoma = system: LOX IMVI melanoma
SK-MEL-2 melanoma = system: SK-MEL-2 melanoma
KM12 colon = system: KM12 colon
HOP-92 NSCLC = system: HOP-92 NSCLC

Q: What does the source list for `N#C/C(=C\c1ccc(-c2ccc(F)cc2)o1)C(=O)Nc1ncc(Cc2ccc(Cl)cc2Cl)s1`?
A: GI50 (K-562 leukemia): 3.48 µM; TGI (K-562 leukemia): > 100 µM; GI50 (MOLT-4 leukemia): 5.24 µM; TGI (MOLT-4 leukemia): > 100 µM; GI50 (SW-620 colon): 1.79 µM; TGI (SW-620 colon): 4.66 µM; GI50 (UACC-257 melanoma): 4.23 µM; TGI (UACC-257 melanoma): > 100 µM; GI50 (HCC-2998 colon): 3.36 µM; TGI (HCC-2998 colon): > 100 µM; GI50 (T-47D breast): 2.75 µM; TGI (T-47D breast): 29.8 µM; GI50 (OVCAR-4 ovarian): 2.99 µM; TGI (OVCAR-4 ovarian): 9.23 µM; GI50 (SN12C renal): 2.48 µM; TGI (SN12C renal): 8.64 µM; GI50 (TK-10 renal): 9.27 µM; TGI (TK-10 renal): 30 µM; GI50 (MDA-MB-231 breast): 3.67 µM; TGI (MDA-MB-231 breast): 32.2 µM; GI50 (CCRF-CEM leukemia): 4.23 µM; TGI (CCRF-CEM leukemia): > 100 µM; GI50 (SNB-19 CNS): 4.63 µM; TGI (SNB-19 CNS): 29.5 µM; GI50 (BT-549 breast): 1.98 µM; TGI (BT-549 breast): 4.65 µM; GI50 (MCF7 breast): 2.21 µM; TGI (MCF7 breast): 8.67 µM; GI50 (786-0 renal): 2.69 µM; TGI (786-0 renal): 10 µM; GI50 (IGROV1 ovarian): 2.47 µM; TGI (IGROV1 ovarian): 7.54 µM; GI50 (OVCAR-5 ovarian): 4.06 µM; TGI (OVCAR-5 ovarian): > 100 µM; GI50 (CAKI-1 renal): 3.05 µM; TGI (CAKI-1 renal): 16.7 µM; GI50 (HCT-15 colon): 2.38 µM; TGI (HCT-15 colon): > 100 µM; GI50 (SNB-75 CNS): 6.2 µM; TGI (SNB-75 CNS): 28.4 µM; GI50 (HS 578T breast): 3.19 µM; TGI (HS 578T breast): 27.9 µM; GI50 (SF-268 CNS): 3.15 µM; TGI (SF-268 CNS): 22.6 µM; GI50 (ACHN renal): 3.52 µM; TGI (ACHN renal): 13.9 µM; GI50 (SK-OV-3 ovarian): 8.63 µM; TGI (SK-OV-3 ovarian): 34.9 µM; GI50 (A498 renal): 3.03 µM; TGI (A498 renal): 22 µM; GI50 (PC-3 prostate): 2.19 µM; TGI (PC-3 prostate): 6.04 µM; GI50 (NCI/ADR-RES ovarian): 3.55 µM; TGI (NCI/ADR-RES ovarian): > 100 µM; GI50 (HOP-62 NSCLC): 3.71 µM; TGI (HOP-62 NSCLC): 16.8 µM; GI50 (EKVX NSCLC): 2.32 µM; TGI (EKVX NSCLC): 6.88 µM; GI50 (UACC-62 melanoma): 3.71 µM; TGI (UACC-62 melanoma): > 100 µM; GI50 (UO-31 renal): 5 µM; TGI (UO-31 renal): > 100 µM; GI50 (NCI-H522 lung): 3.49 µM; TGI (NCI-H522 lung): 34.6 µM; GI50 (U251 CNS): 2.04 µM; TGI (U251 CNS): 4.11 µM; GI50 (RXF 393 renal): 2.28 µM; TGI (RXF 393 renal): 5.78 µM; GI50 (RPMI-8226 leukemia): 4.33 µM; TGI (RPMI-8226 leukemia): > 100 µM; GI50 (SR leukemia): 0.778 µM; TGI (SR leukemia): 12.2 µM; GI50 (NCI-H226 lung): 2.83 µM; TGI (NCI-H226 lung): 8.52 µM; GI50 (MALME-3M melanoma): 2.87 µM; TGI (MALME-3M melanoma): 9.18 µM; GI50 (HCT-116 colon): 2.9 µM; TGI (HCT-116 colon): 10.9 µM; GI50 (M14 melanoma): 2.91 µM; TGI (M14 melanoma): 23.6 µM; GI50 (NCI-H460 lung): 1.76 µM; TGI (NCI-H460 lung): 3.64 µM; GI50 (SF-539 CNS): 2.95 µM; TGI (SF-539 CNS): 8.8 µM; GI50 (DU-145 prostate): 4.19 µM; TGI (DU-145 prostate): > 100 µM; GI50 (OVCAR-8 ovarian): 2.94 µM; TGI (OVCAR-8 ovarian): 16.7 µM; GI50 (SF-295 CNS): 1.92 µM; TGI (SF-295 CNS): 4.27 µM; GI50 (MDA-MB-435): 2.95 µM; TGI (MDA-MB-435): > 100 µM; GI50 (LOX IMVI melanoma): 1.64 µM; TGI (LOX IMVI melanoma): 3.43 µM; GI50 (SK-MEL-2 melanoma): 2.91 µM; TGI (SK-MEL-2 melanoma): 16 µM; GI50 (KM12 colon): > 100 µM; TGI (KM12 colon): > 100 µM; GI50 (HOP-92 NSCLC): 2.17 µM; TGI (HOP-92 NSCLC): 9.16 µM
